Reference: patent US20240115527A1, “CXCR1/CXCR2 INHIBITORS FOR USE IN TREATING MYELOFIBROSIS” (Icahn School of Medicine at Mount Sinai, priority 2020, published 2024)

Tested on: MF CD34+ cells
Experiment: Clonal assays of MF CD34+ cells; JAK2V617F allele status of picked hematopoietic colonies
Format: cell-based, human
Procedure: Individual hematopoietic colonies were randomly picked from clonal assays of CD34^+ cells from 6 MF cases and the JAK2V617F allele status was determined.
IL-8 alone increased the absolute numbers of JAK2V617F+ colonies, and the addition of Ladarixin reduced the numbers of JAK2V617F positive colonies stimulated by IL-8 (Tables 1-3).

[1] = MF1 CD34+ cells, ladarixin 10 μM + IL-8 10 ng
[2] = MF1 CD34+ cells, ladarixin 10 μM + IL-8 20 ng
[3] = MF1 CD34+ cells, ladarixin 10 μM + IL-8 50 ng
[4] = MF1 CD34+ cells, ladarixin 10 μM + IL-8 100 ng
[5] = MF1 CD34+ cells, ladarixin 10 μM, no IL-8
[6] = MF1 CD34+ cells, ladarixin 20 μM + IL-8 20 ng
[7] = MF1 CD34+ cells, ladarixin 20 μM, no IL-8
[8] = MF2 CD34+ cells, ladarixin 10 μM + IL-8 10 ng
[9] = MF2 CD34+ cells, ladarixin 10 μM + IL-8 20 ng
[10] = MF2 CD34+ cells, ladarixin 10 μM + IL-8 50 ng
[11] = MF2 CD34+ cells, ladarixin 10 μM + IL-8 100 ng
[12] = MF2 CD34+ cells, ladarixin 10 μM, no IL-8
[13] = MF2 CD34+ cells, ladarixin 20 μM + IL-8 20 ng
[14] = MF2 CD34+ cells, ladarixin 20 μM, no IL-8
[15] = MF3 CD34+ cells, ladarixin 10 μM + IL-8 10 ng
[16] = MF3 CD34+ cells, ladarixin 10 μM + IL-8 20 ng
[17] = MF3 CD34+ cells, ladarixin 10 μM + IL-8 50 ng
[18] = MF3 CD34+ cells, ladarixin 10 μM + IL-8 100 ng
[19] = MF3 CD34+ cells, ladarixin 10 μM, no IL-8
[20] = MF3 CD34+ cells, ladarixin 20 μM + IL-8 20 ng
[21] = MF3 CD34+ cells, ladarixin 20 μM, no IL-8

Structure (SMILES): C[C@@H](C(=O)NS(C)(=O)=O)c1ccc(OS(=O)(=O)C(F)(F)F)cc1 [Ladarixin, R(-)-2-[(4′-trifluoromethanesulfonyloxy)phenyl]-N-methanesulfonyl propionamide]
- number of colonies, Heter (JAK2V617F heterozygous) [1]: 54
- number of colonies, Homo (JAK2V617F homozygous) [1]: 8
- number of colonies, WT (JAK2 wild type) [1]: 0
- number of colonies, Heter (JAK2V617F heterozygous) [2]: 56
- number of colonies, Homo (JAK2V617F homozygous) [2]: 4
- number of colonies, WT (JAK2 wild type) [2]: 4
- number of colonies, Heter (JAK2V617F heterozygous) [3]: 62
- number of colonies, Homo (JAK2V617F homozygous) [3]: 5
- number of colonies, WT (JAK2 wild type) [3]: 0
- number of colonies, Heter (JAK2V617F heterozygous) [4]: 58
- number of colonies, Homo (JAK2V617F homozygous) [4]: 8
- number of colonies, WT (JAK2 wild type) [4]: 0
- number of colonies, Heter (JAK2V617F heterozygous) [5]: 49
- number of colonies, Homo (JAK2V617F homozygous) [5]: 4
- number of colonies, WT (JAK2 wild type) [5]: 0
- number of colonies, Heter (JAK2V617F heterozygous) [6]: 49
- number of colonies, Homo (JAK2V617F homozygous) [6]: 4
- number of colonies, WT (JAK2 wild type) [6]: 9
- number of colonies, Heter (JAK2V617F heterozygous) [7]: 43
- number of colonies, Homo (JAK2V617F homozygous) [7]: 0
- number of colonies, WT (JAK2 wild type) [7]: 16
- number of colonies, Heter (JAK2V617F heterozygous) [8]: 0
- number of colonies, Homo (JAK2V617F homozygous) [8]: 0
- number of colonies, WT (JAK2 wild type) [8]: 49
- number of colonies, Heter (JAK2V617F heterozygous) [9]: 3
- number of colonies, Homo (JAK2V617F homozygous) [9]: 0
- number of colonies, WT (JAK2 wild type) [9]: 35
- number of colonies, Heter (JAK2V617F heterozygous) [10]: 0
- number of colonies, Homo (JAK2V617F homozygous) [10]: 0
- number of colonies, WT (JAK2 wild type) [10]: 44
- number of colonies, Heter (JAK2V617F heterozygous) [11]: 0
- number of colonies, Homo (JAK2V617F homozygous) [11]: 0
- number of colonies, WT (JAK2 wild type) [11]: 46
- number of colonies, Heter (JAK2V617F heterozygous) [12]: 0
- number of colonies, Homo (JAK2V617F homozygous) [12]: 0
- number of colonies, WT (JAK2 wild type) [12]: 36
- number of colonies, Heter (JAK2V617F heterozygous) [13]: 0
- number of colonies, Homo (JAK2V617F homozygous) [13]: 0
- number of colonies, WT (JAK2 wild type) [13]: 47
- number of colonies, Heter (JAK2V617F heterozygous) [14]: 0
- number of colonies, Homo (JAK2V617F homozygous) [14]: 0
- number of colonies, WT (JAK2 wild type) [14]: 44
- number of colonies, Heter (JAK2V617F heterozygous) [15]: 110
- number of colonies, Homo (JAK2V617F homozygous) [15]: 17
- number of colonies, WT (JAK2 wild type) [15]: 8
- number of colonies, Heter (JAK2V617F heterozygous) [16]: 17
- number of colonies, Homo (JAK2V617F homozygous) [16]: 69
- number of colonies, WT (JAK2 wild type) [16]: 51
- number of colonies, Heter (JAK2V617F heterozygous) [17]: 50
- number of colonies, Homo (JAK2V617F homozygous) [17]: 67
- number of colonies, WT (JAK2 wild type) [17]: 34
- number of colonies, Heter (JAK2V617F heterozygous) [18]: 0
- number of colonies, Homo (JAK2V617F homozygous) [18]: 109
- number of colonies, WT (JAK2 wild type) [18]: 49
- number of colonies, Heter (JAK2V617F heterozygous) [19]: 13
- number of colonies, Homo (JAK2V617F homozygous) [19]: 73
- number of colonies, WT (JAK2 wild type) [19]: 13
- number of colonies, Heter (JAK2V617F heterozygous) [20]: 0
- number of colonies, Homo (JAK2V617F homozygous) [20]: 70
- number of colonies, WT (JAK2 wild type) [20]: 53
- number of colonies, Heter (JAK2V617F heterozygous) [21]: 28
- number of colonies, Homo (JAK2V617F homozygous) [21]: 49
- number of colonies, WT (JAK2 wild type) [21]: 35
- number of colonies, Heter (JAK2V617F heterozygous) (MF4 CD34+ cells, ladarixin 10 μM + IL-8 10 ng): 137
